Test results as given in patent US6093720A, “Trans apovincaminic acid ester derivatives” (Richter Gedeon Vegyeszeti GmbH, priority 1995, dated 2000).
Where “and” joins values, the source holds several entries; their conditions need not be identical. Equal values may be shown once. Entries after “also recorded” stand apart in the source; their conditions may differ. Where a name gives a salt, the structure may show the parent alone.

What was measured:
[1] = system: Fe^2+ -Induced Lipid Peroxidation in Brain Homogenate; assay: Fe^2+-induced (non-enzymatic) lipid peroxidation in brain homogenate (ANI); assay type: biochemical, rat (Hannover-Wistar); details: for antioxidant activity in Fe^2+-induced lipid peroxidation, in words: comparison with idebenone, DL-α-tocopherol or silymarin
Procedure: Effect on the Fe^2+ -Induced Lipid Peroxidation in Brain Homogenate
After decapitating Hannover-Wistar rats weighing 150-220 g each, the whole brain was homogenized in 9 volumes of ice-cold Krebs-Ringer's buffer containing 15 mM HEPES, (4-(2-hydroxyethyl)-1-piperazinylethanesulfonic acid) (pH 7.4), 140 mM NaCl7 3.6 mM KCl, 1.5 mM CaCl2, 0.7 mM MgCl2, 1.4 mM KH2 PO4 and 10 glucose. Then the protein content of the solution was determined and adjusted to 10 mg/ml concentration.
After adding the inhibitory agent to be tested in a volume of 5 μl to 200 μl of the homogenate, the incubation mixture was incubated at 37° C. for 20 minutes. The Fe^2+ -induced lipid peroxidation was accomplished by adding 5 μl of 8 mM Fe2 (NH4)2 (SO4)2 solution. After passing of the incubation time, the reaction was stopped by adding 1 ml of a stopping solution containing 0.8 M HCl and 12.5% trichloroacetic acid, then the samples were centrifuged at 2000 g in a Janetzki K70 apparatus at 4° C. for 10 minutes.
To a 0.5 ml portion of the supernatant, 1 ml of 1% thiobarbituric acid solution was added, then the samples were placed in a water bath of 100° C. for 20 minutes. The color intensity developed was determined at 535 nm with a Hitachi 150-20 spectrophotometer by using malondialdehyde bis(diethylacetal) as reference compound.
ANI: non-enzymatically (Fe^2+) induced lipid peroxidation test

[2] = system: NADPH-Induced Lipid Peroxidation in Brain Microsomes; assay: NADPH-induced (enzymatic) lipid peroxidation in brain microsomes (AEI); assay type: biochemical, rat (male Hannover-Wistar); details: for IC50: NADPH-induced lipid peroxidation, rat brain microsomes, 37° C., 20 minutes, pH 6.8
Procedure: Effect on the NADPH-Induced Lipid Peroxidation in Brain Microsomes
Male Hannover-Wistar rats with a body weight of 150-250 g were used for the preparation of microsomes. After decapitation, the whole brain was removed and homogenized in a 10-fold volume of ice-cold 0.25 M saccharose solution. The homogenate was centrifuged in a Hitachi CR 26H equipment at 15000 g at 4° C. for 10 minutes, then the supernatant was collected and centrifuged in a Hitachi SCP 85H apparatus at 78000 g at 4° C. for 60 minutes. After suspending the precipitate in 0.15 M KCl solution, the protein content of the obtained solution was determined and then adjusted to 10 mg/ml concentration. The microsome thus obtained was frozen in a dry ice-acetone mixture and stored at -70° C. until use. The components of the incubation mixture were: 50 mM TRIS-HCl (pH 6.8), 0.2 mM FeCl3, 1 mM KH2 PO4, 0.5 mM ADP, 0.2 mg of microsomes as well as the compound to be tested. The incubation was carried out with a final volume of 1 ml and with an incubation time of 20 minutes at a temperature of 37° C. The lipid peroxidation was induced by adding 0.4 mM NADPH.
The formation of malondialdehyde was determined by using thiobarbituric acid. After stopping the reaction, 1 ml of 1% thiobarbituric acid solution each was weighed to the samples, which were then placed in a water bath of about 100° C. for 10 minutes. Subsequently, the samples were centrifuged at 2000 g in a Janetzki K70 apparatus at 4° C. for 10 minutes. The absorbance values of the colored supernatant were measured at 535 nm in a Hitachi 150-20 spectrophotometer. Malondialdehyde bis(diethylacetal) was used as reference compound.

[3] = Antiischemic effect on bilateral (carotid) artery ligation model, mortality; assay type: in vivo, mice; details: for mortality at 2 mg/kg: 24 h, 30 minutes before 5-minute bilateral carotid ligation, control mortality 70%
Procedure: 1. Antiischemic Effect (On Bilateral Artery Ligation Model)
N. Himori et al.: Cerebral ischemia model with conscious mice involvement of NMDA receptor activation and derangement of learning and memory ability [J. Pharmacol. Meth. 23, 311-327 (1990)].
Carotid arteries of mice (weighing 30 to 32 g each) were exposed bilaterally under anaesthesia by 450 mg/kg of intraperitoneal (i.p.) chloral hydrate. The sympathetic and vagal nerves were separated and a loose ligation was bilaterally placed below the carotid arteries. Both ends of the ligation were led out on the back, behind the ears. Next day, in conscious state both ends of the ligation were pulled resulting in the stopping of blood supply through the carotid arteries. This was maintained for 5 minutes, then released to provide the reperfusion. The number of animals died during the 5-minute period and the following 24 hours were registered. The calculation of significance was performed by the chi^2 test. The pre-treatment with the compound was carried out intraperitoneally (i.p.) 30 minutes before the ligation.
The transient dramatic decrease in the cerebral blood supply, then the starting of reperfusion after stopping the ligation leads to the formation of extremely toxic oxygen free radicals (superoxide radical, hydrogen peroxide). […] [ED50 is the dose (as mg/kg) diminishing the mortality by 50% in comparison to the untreated is control group].

[4] = Diazepam-induced anterograde amnesia (passive avoidance); assay type: in vivo, NMRI mice; details: for Inhibition of the diazepam-induced amnesia %: 1 hour before learning, diazepam 3 mg/kg i.p.; for antiamnesic activity, in words: diazepam-induced anterograde amnesia, 0.1 and 10 mg/kg p.o.
Excerpt: 2. Diazepam-Induced Anterograde Amnesia C. L. Broekkamp et al.: The comparative effects of benzodiazepines, progabide and PK 9084 on acquisition of passive avoidance in mice [Psychopharmacology (Berlin) 83, 122-125 (1984)]. The memory test was accomplished on NMRI mice weighing 25 to 28 g each by using the passive avoidance, a method based on the genetically determined nyctophilic behavior of rodents. During the learning period, the pre-selected animals (mice entering the dark space from the illuminated space within 30 seconds) were placed in an illuminated space. After entering the dark space, the animal received an electric shock (1 mA for […]) onto its planta within 30 seconds, then the time until entry to the dark space (latency period) was registered. After 24 hours, the animals were placed again in the illuminated space and the time until crossing over to the dark space (retention time=T with a time limit of 300 seconds) was measured. For inducing an anterograde amnesia, the animals were treated intraperitoneally with 3 mg/kg of diazepam 30 minutes before learning. The compounds were administered orally in 0.1 or 10 mg/kg doses, respectively 1 hour before learning. [formula]

[5] = Electroshock-induced retrograde amnesia model; assay type: in vivo; details: oral dose range between 0.1 and 10 mg/kg
[6] = Antiamnesic activity in rats; assay type: in vivo
[7] = Protection against ischemia-induced injury of memory; assay type: in vivo; details: oral dose range between 1 and 10 mg/kg
[8] = "Focal" ischemia models elicited in one well-determined area of the brain; assay type: in vivo
[9] = Antiischemic effect after oral administration; assay type: in vivo

Structure (SMILES): CCC(=O)OCCOC(=O)C1=C[C@@]2(CC)CCCN3CCc4c(n1c1ccccc41)[C@@H]32 [Compound 1011038, (+)-trans apovincaminic acid 2-(propionyloxy)ethyl ester(3α,16β)hydrochloride]
- IC50 ([1]; Fe^2+-induced lipid peroxidation, rat brain homogenate, 37° C., 20 minutes, pH 7.4): 8.7 µM and < 10 µM
- antioxidant activity in Fe^2+-induced lipid peroxidation, in words [1]: about twice as active as idebenone or DL-α-tocopherol
- IC50 [2]: 8.4 µM and < 10 µM
- inhibition of NADPH-induced lipid peroxidation relative to silymarin (times as strongly) ([2]; compared with silymarin): about 20 times
- mortality at 2 mg/kg ([3]; Mus musculus, ip, 2 mg/kg i.p.): 60%
- Inhibition of the diazepam-induced amnesia % ([4]; 0.1 mg/kg p.o.): 64%
- Inhibition of the diazepam-induced amnesia % ([4]; 10.0 mg/kg p.o.): 24%
- antiamnesic activity, in words [4]: particularly effective

Structure (SMILES): CC[C@@]12C=C(C(=O)OCCOC(C)=O)n3c4c(c5ccccc53)CCN(CCC1)[C@@H]42 [Compound 2705279, (-)-trans apovincaminic acid 2-acetoxyethyl ester(3β,16α)monohydrochloride]
- protective action, in words [5]: dose-dependent protective action
- antioxidant activity in Fe^2+-induced lipid peroxidation, in words [1]: about twice as active as idebenone or DL-α-tocopherol
- antiamnesic activity, in words [6]: could well be measured in rats
- protection against ischemia-induced injury of memory, in words [7]: protected against the ischemia-induced injury of memory
- activity on focal ischemia models, in words [8]: active
- IC50 [2]: 6.3 µM and < 10 µM
- antioxidant effect in NADPH-induced lipid peroxidation, in words ([2]; comparison with reference compounds): comparable to that of idebenone
- antioxidant activity compared with idebenone or vinpocetine, in words ([2]; summary statement, in vitro and in vivo): surpasses both in vitro and in vivo that of idebenone or vinpocetine
- antiischemic effect, in words [9]: can be measured after oral administration, too
- mortality at 2 mg/kg ([3]; Mus musculus, ip, 2 mg/kg i.p.): 10 to 30%
- ED50 ([3]; Mus musculus, ip, dose diminishing the mortality by 50% in comparison to the untreated control group): 0.76 mg/kg
- antiischemic activity, in words ([3]; bilateral artery ligation, mice, 2 mg/kg i.p.): most active
- Inhibition of the diazepam-induced amnesia % ([4]; 0.1 mg/kg p.o.): 79%
- Inhibition of the diazepam-induced amnesia % ([4]; 10.0 mg/kg p.o.): 119%
- antiamnesic activity, in words [4]: particularly effective; also recorded: significant protective effect in both doses used and an activity by far exceeding that of vinpocetine; also recorded: most active in this field
